Measurements taken from paper PMC9863136, “Synthesis and DNase I Inhibitory Properties of New Squaramides” (Molecules, 2023).

Assays:
[1] = target: bovine pancreatic DNase I (Bos taurus, UniProt P00639); test: in vitro DNase I inhibition assay (spectrophotometric, absorbance of oligonucleotides at 260 nm); assay type: biochemical
Protocol: Compounds 3a–c were included in an in vitro DNase I inhibition assay.
Evaluation of DNase I inhibition. In vitro determination of the inhibitory activity of compounds 3a–c against bovine pancreatic DNase I was performed using the spectrophotometric method described by Kolarević et al., which is based on measuring the absorbance of the formed oligonucleotides at 260 nm.

bovine pancreatic DNase I, sequence (P00639 23-282): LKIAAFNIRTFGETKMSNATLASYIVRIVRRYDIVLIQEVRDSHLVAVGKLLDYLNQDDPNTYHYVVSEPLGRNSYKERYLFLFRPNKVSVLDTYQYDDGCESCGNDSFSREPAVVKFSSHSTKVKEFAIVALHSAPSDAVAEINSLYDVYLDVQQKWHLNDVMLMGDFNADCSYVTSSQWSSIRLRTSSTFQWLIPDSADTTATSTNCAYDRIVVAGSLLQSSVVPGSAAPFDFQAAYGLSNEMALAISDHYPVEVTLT

Q: For `CCOc1c(NCCc2cccnc2)c(=O)c1=O` [Compound 3a], which IC50 [1] is on record?
A: 54.5 ± 8.07 µM

Q: What about the melting point of the same molecule?
A: 139.8 to 141.2 °C

Q: With `CCOc1c(NCCc2ccncc2)c(=O)c1=O` [Compound 3b] as the molecule, how does the IC50 [1] read?
A: 57.8 ± 9.67 µM

Q: Which IC50 [1] does the source give for `CCOc1c(NC(C)Cc2cccnc2)c(=O)c1=O` (centres unmarked) [Compound 3c, 3-Ethoxy-4-((1-(pyridin-3-yl)propan-2-yl)amino)cyclobut-3-ene-1,2-dione] here?
A: 48 ± 7.98 µM

Q: For `CN(C)c1ccc(C(=C2C=CC(=[N+](C)C)C=C2)c2ccc(N(C)C)cc2)cc1` [crystal violet, reference compound], which IC50 [1] is on record?
A: 358 ± 40.7 µM
